Measured values reported in PubChem BioAssay AID330 (DTP/NCI, 2004).
“And” between values parts separate entries of the source, which are not always exact repeats. Identical values can stand only once. Inconclusive results and toxic doses are left out. Rule for the calls: active = survival T/C of 150% or more; inactive = T/C below 125% in these data.

System: P388 leukemia ip, CD2F1 mice, survival T/C
Assay: NCI In Vivo Anticancer Drug Screen. Data for tumor model P388 Leukemia (intraperitoneal) in CD2F1 (CDF1) mice
Conditions: endpoint: median survival time, higher = longer survival
Method in brief: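 Mice carrying the transplanted tumor received test compound or vehicle. Survival was recorded in each group, and the value is the treated-group measurement divided by that of the vehicle-treated control group.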

[1] = dose: 50.0 mg/kg/injection, schedule: Q01DX005 (ip), vehicle: saline with Tween-80
[2] = dose: 100.0 mg/kg/injection, schedule: Q01DX005 (ip), vehicle: saline with Tween-80
[3] = dose: 200.0 mg/kg/injection, schedule: Q01DX005 (ip), vehicle: saline with Tween-80
[4] = dose: 50.0 mg/kg/injection, schedule: Q01DX005 (ip), vehicle: saline
[5] = dose: 100.0 mg/kg/injection, schedule: Q01DX005 (ip), vehicle: saline
[6] = dose: 200.0 mg/kg/injection, schedule: Q01DX005 (ip), vehicle: saline
[7] = dose: 50.0 mg/kg/injection, schedule: Q01DX005 (ip), vehicle: Klucel (hydroxypropylcellulose) (HPC)
[8] = dose: 100.0 mg/kg/injection, schedule: Q01DX005 (ip), vehicle: Klucel (hydroxypropylcellulose) (HPC)
[9] = dose: 200.0 mg/kg/injection, schedule: Q01DX005 (ip), vehicle: Klucel (hydroxypropylcellulose) (HPC)
[10] = dose: 50.0 mg/kg/injection, schedule: Q01DX009 (ip), vehicle: Klucel (hydroxypropylcellulose) (HPC)
[11] = dose: 100.0 mg/kg/injection, schedule: Q01DX009 (ip), vehicle: Klucel (hydroxypropylcellulose) (HPC)
[12] = dose: 200.0 mg/kg/injection, schedule: Q01DX009 (ip), vehicle: Klucel (hydroxypropylcellulose) (HPC)
[13] = dose: 50.0 mg/kg/injection, schedule: Q01DX009 (ip), vehicle: saline with Tween-80
[14] = dose: 100.0 mg/kg/injection, schedule: Q01DX009 (ip), vehicle: saline with Tween-80
[15] = dose: 200.0 mg/kg/injection, schedule: Q01DX009 (ip), vehicle: saline with Tween-80

Measured: T/C

CCn1c2ccccc2c2cc(N=Nc3cc(CN(C)C)c(O)c4ncccc34)ccc21
inactive: [1] 100 % of control | [2] 100 % of control | [3] 100 % of control

O=C1C(N=Nc2ccc(S(=O)(=O)Nc3ccccn3)cc2)C(=O)N(c2ccc(Cl)cc2)C(=S)N1c1ccc(Cl)cc1
inactive: [4] 105 % of control | [5] 114 % of control | [6] 112 % of control

COc1cc2c(c3c1c(=O)c1cccc(F)c1n3C)C=CC(C)(C)O2
inactive: dose: 25.0 mg/kg/injection, schedule: Q01DX005 (ip), vehicle: Klucel (hydroxypropylcellulose) (HPC) 113 % of control | [7] 109 % of control and 110 % of control | [8] 120 % of control

CC(C)OCCCNCC(=O)Nc1ccc(S(=O)(=O)c2ccc(NC(=O)CNCCCOC(C)C)cc2)cc1
inactive: [7] 95 % of control | [8] 100 % of control | [9] 100 % of control

CC1C(=O)C23CCC4C5(C)CCCC4(C4OCCN4C5)C2CCC1C3 (stereo unspecified)
inactive: dose: 1.0 mg/kg/injection, schedule: Q01DX009 (ip), vehicle: Klucel (hydroxypropylcellulose) (HPC) 99 % of control | dose: 2.0 mg/kg/injection, schedule: Q01DX009 (ip), vehicle: Klucel (hydroxypropylcellulose) (HPC) 97 % of control | dose: 4.0 mg/kg/injection, schedule: Q01DX009 (ip), vehicle: Klucel (hydroxypropylcellulose) (HPC) 98 % of control | dose: 8.0 mg/kg/injection, schedule: Q01DX009 (ip), vehicle: Klucel (hydroxypropylcellulose) (HPC) 97 % of control

COC(=O)C1CC2c3cc4c(cc3CCN2CC1C(=O)OC)OCO4 (stereo unspecified)
inactive: dose: 0.63 mg/kg/injection, schedule: Q01DX009 (ip), vehicle: distilled water + Tween-80 101 % of control | dose: 1.25 mg/kg/injection, schedule: Q01DX009 (ip), vehicle: distilled water + Tween-80 99 % of control | dose: 2.5 mg/kg/injection, schedule: Q01DX009 (ip), vehicle: distilled water + Tween-80 106 % of control | dose: 5.0 mg/kg/injection, schedule: Q01DX009 (ip), vehicle: distilled water + Tween-80 97 % of control | dose: 10.0 mg/kg/injection, schedule: Q01DX009 (ip), vehicle: distilled water + Tween-80 108 % of control | dose: 20.0 mg/kg/injection, schedule: Q01DX009 (ip), vehicle: distilled water + Tween-80 106 % of control

CN1CCCN(C)C1c1cc(Cl)ccc1O
inactive: dose: 6.25 mg/kg/injection, schedule: Q01DX009 (ip), vehicle: saline sonified 90 % of control | dose: 12.5 mg/kg/injection, schedule: Q01DX009 (ip), vehicle: saline sonified 100 % of control | dose: 25.0 mg/kg/injection, schedule: Q01DX009 (ip), vehicle: saline sonified 90 % of control

COC(=O)c1ccc(CNC(=O)c2ccccc2C(=O)NCC2(CBr)OCCO2)cc1
inactive: [10] 113 % of control | [11] 99 % of control | [12] 96 % of control

COc1ccc(S(=O)(=O)N=N/C=C2\C=CC=CN2O)cc1OC
inactive: dose: 1.56 mg/kg/injection, schedule: Q01DX009 (ip), vehicle: saline with Tween-80 104 % of control | dose: 3.12 mg/kg/injection, schedule: Q01DX009 (ip), vehicle: saline with Tween-80 103 % of control | dose: 6.25 mg/kg/injection, schedule: Q01DX009 (ip), vehicle: saline with Tween-80 103 % of control | dose: 12.5 mg/kg/injection, schedule: Q01DX009 (ip), vehicle: saline with Tween-80 100 % of control and 103 % of control and 90 % of control | dose: 25.0 mg/kg/injection, schedule: Q01DX001 (ip), vehicle: saline with Tween-80 100 % of control | dose: 25.0 mg/kg/injection, schedule: Q01DX009 (ip), vehicle: saline with Tween-80 110 % of control and 114 % of control and 117 % of control | dose: 50.0 mg/kg/injection, schedule: Q01DX001 (ip), vehicle: saline with Tween-80 109 % of control | [13] 119 % of control | dose: 100.0 mg/kg/injection, schedule: Q01DX001 (ip), vehicle: saline with Tween-80 118 % of control

Cc1ccc2nc(N/N=C/c3cccs3)sc2c1
inactive: [10] 100 % of control | [11] 101 % of control | [12] 94 % of control

NC(CCC(=O)NCC(=O)O)C(=O)O (stereo unspecified)
inactive: [4] 94 % of control | [5] 104 % of control | [6] 102 % of control

CCOC(=O)c1c(-c2ccccc2)csc1NC(=O)CN1CCCCC1
inactive: [1] 98 % of control | [2] 114 % of control | [3] 113 % of control

C[CH2][Sn]1([CH2]C)[O]C2C(OC)OC3COC(c4ccccc4)OC3C2[O]1 (stereo unspecified)
inactive: dose: 1.56 mg/kg/injection, schedule: Q04DX003 (ip), vehicle: saline 101 % of control and 107 % of control | dose: 3.12 mg/kg/injection, schedule: Q04DX003 (ip), vehicle: saline 104 % of control and 116 % of control | dose: 6.25 mg/kg/injection, schedule: Q04DX003 (ip), vehicle: saline 101 % of control and 116 % of control and 117 % of control | dose: 12.5 mg/kg/injection, schedule: Q04DX003 (ip), vehicle: saline 104 % of control and 116 % of control

Cc1ccc(C)c2c3c([nH]c12)-c1ccccc1CC3
inactive: [13] 103 % of control | [14] 107 % of control | [15] 103 % of control

CC(C)(C)N=C(CCN1CCN(CCC(=NC(C)(C)C)Nc2c(Cl)cccc2Cl)CC1)Nc1c(Cl)cccc1Cl
inactive: [10] 96 % of control | [11] 95 % of control | [12] 92 % of control

COc1ccc(-c2cnc(=O)[nH]c2N)cc1
inactive: dose: 60.0 mg/kg/injection, schedule: Q01DX005 (ip), vehicle: suspension in saline 99 % of control | dose: 120.0 mg/kg/injection, schedule: Q01DX005 (ip), vehicle: suspension in saline 97 % of control | dose: 240.0 mg/kg/injection, schedule: Q01DX005 (ip), vehicle: suspension in saline 105 % of control

NC(CS(=O)(=O)O)C(=O)O (stereo unspecified)
inactive: dose: 100.0 mg/kg/injection, schedule: Q04DX002 (ip), vehicle: saline 105 % of control | dose: 200.0 mg/kg/injection, schedule: Q04DX002 (ip), vehicle: saline 96 % of control

CNC(C)=O
inactive: [14] 95 % of control | dose: 100.0 mg/kg/injection, schedule: Q04DX003 (ip), vehicle: saline 90 % of control | [15] 95 % of control | dose: 200.0 mg/kg/injection, schedule: Q04DX003 (ip), vehicle: saline 95 % of control | dose: 400.0 mg/kg/injection, schedule: Q01DX009 (ip), vehicle: saline with Tween-80 95 % of control | dose: 400.0 mg/kg/injection, schedule: Q04DX003 (ip), vehicle: saline 100 % of control

Cc1ccc(S(=O)(=O)Oc2ccc3sc4cccc(NCCN(C)C)c4c(=O)c3c2)cc1
inactive: dose: 12.5 mg/kg/injection, schedule: Q01DX005 (ip), vehicle: saline with Tween-80 104 % of control | dose: 25.0 mg/kg/injection, schedule: Q01DX005 (ip), vehicle: saline with Tween-80 93 % of control | [1] 90 % of control and 96 % of control | [2] 92 % of control and 94 % of control | [3] 92 % of control | dose: 400.0 mg/kg/injection, schedule: Q01DX005 (ip), vehicle: saline with Tween-80 94 % of control

CCOC(=O)COc1cc2c(cc1C(CC)c1ccccc1)OCO2 (stereo unspecified)
inactive: [7] 97 % of control | [8] 102 % of control | [9] 102 % of control

CC1=C(O)CC(/C(C)=C\Cl)OC1=O (stereo unspecified)
inactive: dose: 100.0 mg/kg/injection, schedule: Q04DX002 (ip), vehicle: Klucel (hydroxypropylcellulose) (HPC) 101 % of control | dose: 200.0 mg/kg/injection, schedule: Q04DX002 (ip), vehicle: Klucel (hydroxypropylcellulose) (HPC) 98 % of control | dose: 400.0 mg/kg/injection, schedule: Q04DX002 (ip), vehicle: Klucel (hydroxypropylcellulose) (HPC) 104 % of control

Nn1c(-c2cnns2)n[nH]c1=S
inactive: dose: 100.0 mg/kg/injection, schedule: Q01DX001 (ip), vehicle: Klucel (hydroxypropylcellulose) (HPC) 100 % of control | dose: 200.0 mg/kg/injection, schedule: Q01DX001 (ip), vehicle: Klucel (hydroxypropylcellulose) (HPC) 100 % of control | dose: 400.0 mg/kg/injection, schedule: Q01DX001 (ip), vehicle: Klucel (hydroxypropylcellulose) (HPC) 105 % of control

O=c1c2ccccc2sc2c([N+](=O)[O-])ccc(NCC3CCCN4CCCCC34)c12 (stereo unspecified)
inactive: dose: 38.5 mg/kg/injection, schedule: Q01DX005 (ip), vehicle: saline with Tween-80 96 % of control | dose: 77.0 mg/kg/injection, schedule: Q01DX005 (ip), vehicle: saline with Tween-80 96 % of control | dose: 154.0 mg/kg/injection, schedule: Q01DX005 (ip), vehicle: saline with Tween-80 118 % of control

CCOC(=O)C1CCC(=O)C(CC)=C1C (stereo unspecified)
inactive: [1] 103 % of control | [2] 103 % of control | [3] 107 % of control

CC(=O)c1ccc(Cl)c(N=Cc2cc(Cl)cc(Cl)c2O)c1
inactive: [10] 91 % of control | [11] 93 % of control | [12] 98 % of control
